Results reported in patent US8076352B2, “Administration of carboline derivatives useful in the treatment of cancer and other diseases” (PTC Therapeutics, Inc., priority 2004, dated 2011).

These compounds were tested on hypoxia-inducible endogenous VEGF expression in HeLa cells (assay: Hypoxia-inducible endogenous VEGF expression, VEGF ELISA of conditioned media (dose-response EC50)). Details: Homo sapiens, HeLa cells, hypoxic conditions (1% O2).
Format: cell-based
In short: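 HeLa cells were cultured 24-48 h under hypoxia (1% O2, 5% CO2, balance N2) with or without compound. Conditioned-media VEGF protein was measured by ELISA against a standard curve. EC50 and CC50 come from percentage-inhibition curves over, e.g., seven concentrations, with maximal inhibition set at 100%.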

SMILES | EC50 [nM]
CC(C)NCCCCCCOc1ccc(C2c3[nH]c4ccc(Cl)cc4c3CCN2C(=O)Oc2ccc(Cl)cc2)cc1 (stereo not shown) [Compound 784] | < 8
COCCCNCCCCCCOc1ccc(C2c3[nH]c4ccc(Cl)cc4c3CCN2C(=O)Oc2ccc(Cl)cc2)cc1 (stereo not shown) [Compound 785] | < 8
O=C(Oc1ccc(Cl)cc1)N1CCc2c([nH]c3ccc(Cl)cc23)C1c1ccc(OCCCCCCN2CCOCC2)cc1 (stereo not shown) [Compound 786] | < 8
O=C(Oc1ccc(Cl)cc1)N1CCc2c([nH]c3ccc(Cl)cc23)C1c1ccc(OCCCCCCN2CCCCC2)cc1 (stereo not shown) [Compound 787] | < 8
CN1CCN(CCCCCCOc2ccc(C3c4[nH]c5ccc(Cl)cc5c4CCN3C(=O)Oc3ccc(Cl)cc3)cc2)CC1 (stereo not shown) [Compound 788] | 8 to 40
O=C(Oc1ccc(Cl)cc1)N1CCc2c([nH]c3ccc(Cl)cc23)C1c1ccc(OCCCCCCNCCCn2ccnc2)cc1 (stereo not shown) [Compound 789] | 40 to 200
O=C(Oc1ccc(Cl)cc1)N1CCc2c([nH]c3ccc(Cl)cc23)C1c1ccc(OCCCCCCn2ccnc2)cc1 (stereo not shown) [Compound 790] | < 8
O=C(Oc1ccc(Cl)cc1)N1CCc2c([nH]c3ccc(Cl)cc23)C1c1ccc(OCCCCCCn2cncn2)cc1 (stereo not shown) [Compound 791] | < 8

Same assay, conditions: Homo sapiens, HeLa cells, hypoxic conditions (1% O2, 5% CO2)

SMILES | EC50 [nM]
O=C(Oc1ccc(F)cc1)N1CCc2c([nH]c3ccc(Cl)cc23)C1c1ccc(OCCn2ccnn2)cc1 (stereo not shown) [Compound 833] | 40 to 200
O=C(Oc1ccc(F)cc1)N1CCc2c([nH]c3ccc(Cl)cc23)C1c1ccc(OCCn2cncn2)cc1 (stereo not shown) [Compound 834] | 8 to 40
O=C(Oc1ccc(F)cc1)N1CCc2c([nH]c3ccc(Cl)cc23)C1c1ccc(OCCn2ccnc2)cc1 (stereo not shown) [Compound 835] | 40 to 200
O=C(Oc1ccc(F)cc1)N1CCc2c([nH]c3ccc(Cl)cc23)C1c1ccc(OCCn2cccn2)cc1 (stereo not shown) [Compound 836] | 8 to 40
O=C(Oc1ccc(Cl)cc1)N1CCc2c([nH]c3ccc(Cl)cc23)C1c1ccc(OCCn2ccnn2)cc1 (stereo not shown) [Compound 839] | 8 to 40
O=C(Oc1ccc(Cl)cc1)N1CCc2c([nH]c3ccc(Cl)cc23)C1c1ccc(OCCn2cncn2)cc1 (stereo not shown) [Compound 840] | 8 to 40
CC(C)(C)OC(=O)N1CCC(COc2ccc(C3c4[nH]c5ccc(Cl)cc5c4CCN3C(=O)Oc3ccc(Cl)cc3)cc2)CC1 (stereo not shown) [Compound 845] | 40 to 200
NCC(O)COc1ccc(C2c3[nH]c4ccc(Cl)cc4c3CCN2C(=O)Oc2ccc(Cl)cc2)cc1 (stereo not shown) [Compound 846] | 40 to 200
CC(=O)NCC(O)COc1ccc(C2c3[nH]c4ccc(Cl)cc4c3CCN2C(=O)Oc2ccc(Cl)cc2)cc1 (stereo not shown) [Compound 847] | 8 to 40
COC(=O)NCC(O)COc1ccc(C2c3[nH]c4ccc(Cl)cc4c3CCN2C(=O)Oc2ccc(Cl)cc2)cc1 (stereo not shown) [Compound 848] | < 8
CS(=O)(=O)NCC(O)COc1ccc(C2c3[nH]c4ccc(Cl)cc4c3CCN2C(=O)Oc2ccc(Cl)cc2)cc1 (stereo not shown) [Compound 849] | 8 to 40
CNCC(O)COc1ccc(C2c3[nH]c4ccc(Cl)cc4c3CCN2C(=O)Oc2ccc(Cl)cc2)cc1 (stereo not shown) [Compound 850] | 40 to 200
O=C(Oc1ccc(Cl)cc1)N1CCc2c([nH]c3ccc(Cl)cc23)C1c1ccc(OCC(O)Cn2ccnc2)cc1 (stereo not shown) [Compound 867] | 8 to 40
Cc1ccc(OC(=O)N2CCc3c([nH]c4ccc(Cl)cc34)C2c2ccc(OCCCn3cncn3)cc2)cc1 (stereo not shown) [Compound 882] | < 8
COc1ccc(OC(=O)N2CCc3c([nH]c4ccc(Cl)cc34)C2c2ccc(OCCCn3cncn3)cc2)cc1 (stereo not shown) [Compound 888] | < 8
O=C(Oc1ccc(F)cc1)N1CCc2c([nH]c3ccc(Cl)cc23)C1c1ccc(OCCCn2ccnc2)cc1 (stereo not shown) [Compound 889] | < 8
O=C(Oc1ccccc1)N1CCc2c([nH]c3ccc(Cl)cc23)C1c1ccc(OCCCn2cncn2)cc1 (stereo not shown) [Compound 891] | < 8
O=C(Oc1ccc(F)cc1)N1CCc2c([nH]c3ccc(Cl)cc23)C1c1ccc(OCCCn2cncn2)cc1 (stereo not shown) [Compound 892] | < 8
O=C(Oc1ccc(Cl)cc1)N1CCc2c([nH]c3ccc(Cl)cc23)C1c1ccc(OCCCN2CCOCC2)cc1 (stereo not shown) [Compound 894] | < 8
Cc1ccc(OC(=O)N2CCc3c([nH]c4ccc(Cl)cc34)C2c2ccc(OCCCn3ccnc3)cc2)cc1 (stereo not shown) [Compound 900] | < 8

SMILES | EC50 [nM]
CC(=O)N1CCN(CCCOc2ccc(C3c4[nH]c5ccc(Cl)cc5c4CCN3C(=O)Oc3ccc(Cl)cc3)cc2)CC1 (stereo not shown) [Compound 903] | < 8
O=C(Oc1ccc(Cl)cc1)N1CCc2c([nH]c3ccc(Cl)cc23)C1c1ccc(OCC(O)CN2CCOCC2)cc1 (stereo not shown) [Compound 904] | < 8
COCCN(C)CCCOc1ccc(C2c3[nH]c4ccc(Cl)cc4c3CCN2C(=O)Oc2ccc(Cl)cc2)cc1 (stereo not shown) [Compound 908] | < 8
O=C(Oc1ccccc1)N1CCc2c([nH]c3ccc(Cl)cc23)C1c1ccc(OCCCn2ccnc2)cc1 (stereo not shown) [Compound 911] | < 8
COCCN(CCOC)CC(O)COc1ccc(C2c3[nH]c4ccc(Cl)cc4c3CCN2C(=O)Oc2ccc(F)cc2)cc1 (stereo not shown) [Compound 913] | < 8
Cc1ccc(OC(=O)N2CCc3c([nH]c4ccc(Cl)cc34)C2c2ccc(OCCCCl)cc2)cc1 (stereo not shown) [Compound 915] | < 8
COCCN(CCCOc1ccc(C2c3[nH]c4ccc(Cl)cc4c3CCN2C(=O)Oc2ccc(Cl)cc2)cc1)CCOC (stereo not shown) [Compound 916] | < 8
O=C(Oc1ccc(Cl)cc1)N1CCc2c([nH]c3ccc(Cl)cc23)C1c1ccc(OCCCn2ccnc2)cc1 (stereo not shown) [Compound 917] | < 8
COCCN(CCOC)CC(O)COc1ccc(C2c3[nH]c4ccc(Cl)cc4c3CCN2C(=O)Oc2ccc(Cl)cc2)cc1 (stereo not shown) [Compound 918] | < 8
COc1ccc(OC(=O)N2CCc3c([nH]c4ccc(Cl)cc34)C2c2ccc(OCCCn3ccnc3)cc2)cc1 (stereo not shown) [Compound 920] | < 8
O=C(Oc1ccc(Cl)cc1)N1CCc2c([nH]c3ccc(Cl)cc23)C1c1ccc(OCCCCl)cc1 (stereo not shown) [Compound 921] | < 8
O=C(Oc1ccc(F)cc1)N1CCc2c([nH]c3ccc(Cl)cc23)C1c1ccc(OCC(O)Cn2ccnc2)cc1 (stereo not shown) [Compound 922] | < 8
O=C(Oc1ccc(Cl)cc1)N1CCc2c([nH]c3ccc(Cl)cc23)C1c1ccc(OCC(O)CN2CCSCC2)cc1 (stereo not shown) [Compound 923] | < 8
O=C(Oc1ccc(F)cc1)N1CCc2c([nH]c3ccc(Cl)cc23)C1c1ccc(OCC(O)CN2CCSCC2)cc1 (stereo not shown) [Compound 925] | < 8
O=C(Oc1ccccc1Cl)N1CCc2c([nH]c3ccc(Cl)cc23)C1c1ccc(OCCCn2cncn2)cc1 (stereo not shown) [Compound 926] | < 8
CN1CCCC(COc2ccc(C3c4[nH]c5ccc(Cl)cc5c4CCN3C(=O)Oc3ccc(F)cc3)cc2)C1 (stereo not shown) [Compound 932] | < 8
O=C(Oc1ccc(Cl)cc1)N1CCc2c([nH]c3ccc(Cl)cc23)C1c1ccc(OCCCN2CCSCC2)cc1 (stereo not shown) [Compound 933] | < 8
O=C(Oc1ccccc1Cl)N1CCc2c([nH]c3ccc(Cl)cc23)C1c1ccc(OCCCn2ccnc2)cc1 (stereo not shown) [Compound 934] | < 8
COCCN(C)CC(O)COc1ccc(C2c3[nH]c4ccc(Cl)cc4c3CCN2C(=O)Oc2ccc(F)cc2)cc1 (stereo not shown) [Compound 936] | < 8
CCN(CC)CC(O)COc1ccc(C2c3[nH]c4ccc(Cl)cc4c3CCN2C(=O)Oc2ccc(Cl)cc2)cc1 (stereo not shown) [Compound 938] | < 8

SMILES | EC50 [nM]
O=C(Oc1ccc(F)cc1)N1CCc2c([nH]c3ccc(Cl)cc23)C1c1ccc(OCC(O)Cn2ccnn2)cc1 (stereo not shown) [Compound 941] | < 8
O=C(Oc1ccc(Cl)cc1)N1CCc2c([nH]c3ccc(Cl)cc23)C1c1ccc(OCCCN2CCN(CCO)CC2)cc1 (stereo not shown) [Compound 942] | 8 to 40
COc1ccc(OC(=O)N2CCc3c([nH]c4ccc(Cl)cc34)C2c2ccc(OCCCCl)cc2)cc1 (stereo not shown) [Compound 944] | 8 to 40
CCN(CC)CCCOc1ccc(C2c3[nH]c4ccc(Cl)cc4c3CCN2C(=O)Oc2ccc(Cl)cc2)cc1 (stereo not shown) [Compound 946] | 8 to 40
Cc1ccc(OC(=O)N2CCc3c([nH]c4ccc(Cl)cc34)C2c2ccc(OCC3CCCN(C)C3)cc2)cc1 (stereo not shown) [Compound 951] | 8 to 40
CN1CCCC(COc2ccc(C3c4[nH]c5ccc(Cl)cc5c4CCN3C(=O)Oc3ccccc3)cc2)C1 (stereo not shown) [Compound 952] | 8 to 40
CC(C)NCCCOc1ccc(C2c3[nH]c4ccc(Cl)cc4c3CCN2C(=O)Oc2ccc(Cl)cc2)cc1 (stereo not shown) [Compound 953] | 8 to 40
CCS(=O)(=O)Nc1ccc(C2c3[nH]c4ccc(Cl)cc4c3CCN2C(=O)Oc2ccc(Cl)cc2)cc1 (stereo not shown) [Compound 958] | 8 to 40
O=C(Oc1ccc(Cl)cc1)N1CCc2c([nH]c3ccc(Cl)cc23)C1c1ccc(OCC(O)CN2CCN(CCO)CC2)cc1 (stereo not shown) [Compound 960] | 8 to 40
CN1CCN(CCCOc2ccc(C3c4[nH]c5ccc(Cl)cc5c4CCN3C(=O)Oc3ccc(Cl)cc3)cc2)CC1 (stereo not shown) [Compound 961] | 8 to 40
CN1CCN(CC(O)COc2ccc(C3c4[nH]c5ccc(Cl)cc5c4CCN3C(=O)Oc3ccc(F)cc3)cc2)CC1 (stereo not shown) [Compound 963] | 8 to 40
COCCN(C)CC(O)COc1ccc(C2c3[nH]c4ccc(Cl)cc4c3CCN2C(=O)Oc2ccc(Cl)cc2)cc1 (stereo not shown) [Compound 964] | 8 to 40
CN1CCCC(COc2ccc(C3c4[nH]c5ccc(Cl)cc5c4CCN3C(=O)Oc3ccc(Cl)cc3)cc2)C1 (stereo not shown) [Compound 966] | 8 to 40
CN1CCN(CC(O)COc2ccc(C3c4[nH]c5ccc(Cl)cc5c4CCN3C(=O)Oc3ccc(Cl)cc3)cc2)CC1 (stereo not shown) [Compound 970] | 8 to 40
O=C(Oc1ccc(Cl)cc1)N1CCc2c([nH]c3ccc(Cl)cc23)C1c1ccc(OCC(O)Cn2ccnn2)cc1 (stereo not shown) [Compound 973] | 8 to 40
CS(=O)(=O)Nc1ccc(C2c3[nH]c4ccc(Cl)cc4c3CCN2C(=O)Oc2ccc(Cl)cc2)cc1 (stereo not shown) [Compound 974] | 40 to 200
CN1CCCC(COc2ccc(C3c4[nH]c5ccc(Cl)cc5c4CCN3C(=O)Oc3ccccc3Cl)cc2)C1 (stereo not shown) [Compound 976] | 40 to 200
CC(C)NCC(O)COc1ccc(C2c3[nH]c4ccc(Cl)cc4c3CCN2C(=O)Oc2ccc(Cl)cc2)cc1 (stereo not shown) [Compound 977] | 40 to 200
COc1ccc(OC(=O)N2CCc3c([nH]c4ccc(Cl)cc34)C2c2ccc(OCC3CCCN(C)C3)cc2)cc1 (stereo not shown) [Compound 981] | 40 to 200
